Assay results from US20260335294A1, “TREATING CONGENITAL DISORDERS OF GLYCOSYLATION” (Mayo Foundation for Medical Education and Research, priority 2022, published 2026).
“Also recorded” adds a separate entry of the source.

Tested on: PMM2-CDG and healthy fibroblasts
Experiment: Metabolomic profiling (LC/MS, GC/MS) of fibroblasts treated with epalrestat
Assay type: cell-based, human
Protocol: Patient (P1-P6) and control fibroblasts were obtained by a skin punch biopsy. Fibroblasts were maintained in low glucose DMEM (Gibco) supplemented with 10% FBS in an incubator at 37 °C, 5% CO2, no longer than two months or until they reached passage 15 to avoid senescence. Routine mycoplasma testing was performed.
Briefly, 15,000 fibroblasts were plated in 1.5 mL DMEM (Gibco, 5.5 mM glucose, 2 mM glutamine, 10% FBS) per well in two 6-well plates. The medium change was performed on day 2 and day 4. On day 6, the medium was removed, cells were washed with ice-cold 0.9% NaCl (Sigma) (physiological solution) and 250 μL of extraction buffer (80% MeOH, IS) was added to the cells. Next, cells were scraped and the cell extracts transferred to 1.5 mL Eppendorf tubes and placed overnight at −80 °C. Next, samples were centrifuged at 15,000 rpm, 4 °C, 20 minutes. The supernatant was transferred to a vial for direct analysis by LC/MS, while 100 μL of 200 mM NaOH was added to the (protein) pellet. Pellets were incubated at 95 °C for 30 minutes after which they were centrifuged at 5,000 rpm, 4 °C, 10 minutes. Supernatant was used to determine protein concentration by BCA protein assay kit (Pierce).
Fibroblasts were plated in 6-well plates for LC/MS and T75 flasks for GC/MS analysis as described above. After 24 hours, medium was removed and cells washed with PBS. Then, DMEM containing 5.5 mM glucose, 2 mM glutamine, and 10% dialyzed FBS was added. Epalrestat was freshly prepared and fibroblasts were supplemented with 10 μM epalrestat daily. After 48 hours media was changed, and 48 hours after that, metabolites were extracted and measured by both LC/MS and GC/MS. Zebrafish embryos were genotyped at 2 days post fertilization (dpf), and were treated by adding the epalrestat (solubilized in DMSO) directly into the embryo media at 5 dpf. Control embryos were similarly treated with DMSO alone. Embryos were harvested for metabolic analyses 24 hours posttreatment. The final concentration of DMSO was equivalent between control and treatment, never exceeding 0.5%.
An ion-pairing liquid chromatography column (C18) was used to separate 10 μL of sample, after which the metabolites were resolved on a Thermo Fisher Q-Exactive Hybrid Quadrupole-Orbitrap Mass Spectrometer (negative ion mode). The ESI settings were as follows: 50 sheet gas flow rate, auxiliary gas flow rate 15, spray voltage of 4 kV, S-lens RF level of 60, and the capillary temperature at 350 °C. A full scan (resolution 140,000 at 200 m/z, AGC at 3 e6, 512 ms ion fill time, and 70-850 m/z scan range) was performed. The metabolites were identified according to their elution time and m/z ratios by using in-house metabolite standard library and El-Maven v0. 12.0/Polly™ Labeled LC-MS Workflow or Thermo Fisher Xcalibur software. The correction of naturally occurring carbon isotopes was also performed. Relative metabolite abundances were normalized to the internal standard and protein content.
For GC/MS measurements of hexose-P, hexose-bisphosphates, hexose and polyols, fibroblasts were cultured in a similar fashion as for LC/MS with the following adjustments: 1) an appropriate number of fibroblasts was plated in T75 flasks instead of 6-well plates to ensure the optimal amount of metabolite concentration necessary for GC/MS; 2) metabolites were extracted from cells with 2 mL 80% MeOH, IS and the supernatant was transferred to a fresh 2 mL Eppendorf tube. Standards containing metabolites of interest were prepared simultaneously and dried overnight together with cellular extracts by vacuum centrifugation at 4 °C. The following day, 20 μL of methoxyamine (MOX) (Sigma Aldrich) was added to the samples and they were incubated for 90 minutes at 37 °C. Next, 60 μL of N,O-bis(trimethylsilyl)trifluoroacetamide (TMS) (Sigma Aldrich) was added to the samples, which were then incubated at 60 °C for 30 minutes. Samples were kept overnight in a dry and cool place to allow further derivatization with TMS. […]

[1] = 10 μM daily, patient fibroblasts

For `CC(/C=C1\SC(=S)N(CC(=O)O)C1=O)=C\c1ccccc1` [epalrestat], the CMP-sialic acid abundance (10 μM daily) was “increased”, the UDP-HexNAc abundance (10 μM daily) was “increased” and the UDP-hexose abundance (10 μM daily) was “increased”. For the same molecule, the glucose-1-P abundance (10 μM daily) was “increased”, the hexosamine-P abundance (10 μM daily) was “increased” and the hexose-P abundance (10 μM daily) was “increased”. For the same molecule, the pentose-P abundance (10 μM daily) was “increased”, the sedoheptulose-7-P abundance (10 μM daily) was “increased” and the “Glc-1,6-P2 abundance” value (10 μM daily, PMM2-CDG fibroblasts) was “increased; also recorded: significantly increase”. The mannitol abundance (10 μM daily, intracellular) was “reduced in the majority of patient fibroblasts”, the sorbitol abundance (10 μM daily, intracellular) was “significantly reduced; also recorded: significantly decreased” and the overall polyol pool (10 μM daily, patient and control cell lines, dialyzed FBS) was “reduced; also recorded: significantly decreased”. The GDP-mannose abundance [1] was “increased; also recorded: significantly increase”, the man-1-P abundance [1] was “increased; also recorded: significantly increase” and the mannose-6-P abundance [1] was “increased; also recorded: significantly increase”. For the same molecule, the “GDP-mannose levels vs controls” value (patient fibroblasts, epalrestat alone) was “never reached the same levels as the ones seen in controls”.
